The text below walks through data of ChEMBL document CHEMBL1136068 (Bioorg Med Chem Lett, 2003).

The pIC50 is the negative decadic logarithm of the IC50, by convention in mol/L. Low readings indicate a large IC50, high ones a small IC50.

pIC50: −log10 of the molar value. Active and inactive are the calls of the source. No cut-off for these calls is given here.

For one assay, the target named is Estrogen receptor (Homo sapiens, UniProt Q92731+P03372). Description: Antagonist activity at estrogen (hER) receptor; Efficacy <20% and/or potency >[…] nM. Format: functional.
In assay [1] the target is T1, Glucocorticoid receptor (Homo sapiens, UniProt P04150).
T1 sequence (P04150 whole entry): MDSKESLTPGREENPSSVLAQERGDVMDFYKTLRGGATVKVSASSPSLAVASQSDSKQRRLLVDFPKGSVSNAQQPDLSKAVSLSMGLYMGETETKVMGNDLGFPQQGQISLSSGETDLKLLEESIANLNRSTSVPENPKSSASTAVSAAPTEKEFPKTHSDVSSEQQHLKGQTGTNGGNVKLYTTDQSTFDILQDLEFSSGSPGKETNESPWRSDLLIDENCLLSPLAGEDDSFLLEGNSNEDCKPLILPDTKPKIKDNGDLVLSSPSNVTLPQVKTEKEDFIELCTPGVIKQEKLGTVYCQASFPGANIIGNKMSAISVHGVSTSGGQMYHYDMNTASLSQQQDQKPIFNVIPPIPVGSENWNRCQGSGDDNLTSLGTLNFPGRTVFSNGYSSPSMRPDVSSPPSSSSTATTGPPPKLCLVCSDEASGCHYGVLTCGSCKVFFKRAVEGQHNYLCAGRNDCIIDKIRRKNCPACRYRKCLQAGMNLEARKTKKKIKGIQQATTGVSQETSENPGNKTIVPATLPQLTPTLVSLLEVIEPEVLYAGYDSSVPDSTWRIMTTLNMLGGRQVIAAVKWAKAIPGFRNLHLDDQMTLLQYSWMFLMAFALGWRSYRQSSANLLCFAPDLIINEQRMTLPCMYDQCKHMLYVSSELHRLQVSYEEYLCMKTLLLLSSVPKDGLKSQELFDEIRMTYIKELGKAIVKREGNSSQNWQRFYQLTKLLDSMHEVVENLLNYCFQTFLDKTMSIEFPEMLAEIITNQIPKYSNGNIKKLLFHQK
Description: Antagonist activity at glucocorticoid receptor. It is filed as functional.

Assay [2] addresses T2, Androgen receptor (Homo sapiens, UniProt P10275).
T2 sequence (P10275 whole entry): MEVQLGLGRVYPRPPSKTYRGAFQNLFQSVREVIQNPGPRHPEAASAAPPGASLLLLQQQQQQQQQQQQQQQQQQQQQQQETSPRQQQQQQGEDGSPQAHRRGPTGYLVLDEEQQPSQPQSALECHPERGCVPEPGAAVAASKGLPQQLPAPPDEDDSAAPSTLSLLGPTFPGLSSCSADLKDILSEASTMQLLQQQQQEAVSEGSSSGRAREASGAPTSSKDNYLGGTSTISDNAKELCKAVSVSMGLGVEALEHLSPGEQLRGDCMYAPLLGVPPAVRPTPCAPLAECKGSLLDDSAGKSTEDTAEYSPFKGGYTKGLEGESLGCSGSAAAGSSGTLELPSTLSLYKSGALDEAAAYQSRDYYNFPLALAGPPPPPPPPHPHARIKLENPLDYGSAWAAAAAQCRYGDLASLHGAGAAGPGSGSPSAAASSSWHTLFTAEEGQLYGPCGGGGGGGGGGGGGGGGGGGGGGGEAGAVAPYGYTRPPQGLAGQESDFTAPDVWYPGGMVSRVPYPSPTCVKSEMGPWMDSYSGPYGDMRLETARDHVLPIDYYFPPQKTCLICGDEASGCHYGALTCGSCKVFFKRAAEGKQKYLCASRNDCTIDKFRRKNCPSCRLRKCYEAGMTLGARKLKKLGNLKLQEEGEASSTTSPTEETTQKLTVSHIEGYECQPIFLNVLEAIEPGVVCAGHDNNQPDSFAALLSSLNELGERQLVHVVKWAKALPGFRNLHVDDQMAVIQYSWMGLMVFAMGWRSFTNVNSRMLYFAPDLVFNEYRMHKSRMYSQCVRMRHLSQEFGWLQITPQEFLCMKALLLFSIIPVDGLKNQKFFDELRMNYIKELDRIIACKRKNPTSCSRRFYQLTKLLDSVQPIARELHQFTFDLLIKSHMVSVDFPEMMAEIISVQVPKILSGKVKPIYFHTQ
Description: Antagonist activity against human Androgen receptor. It is filed as functional.

Assay [3] has as its target T3, Mineralocorticoid receptor (Homo sapiens) (UniProt P08235).
T3 sequence (whole entry): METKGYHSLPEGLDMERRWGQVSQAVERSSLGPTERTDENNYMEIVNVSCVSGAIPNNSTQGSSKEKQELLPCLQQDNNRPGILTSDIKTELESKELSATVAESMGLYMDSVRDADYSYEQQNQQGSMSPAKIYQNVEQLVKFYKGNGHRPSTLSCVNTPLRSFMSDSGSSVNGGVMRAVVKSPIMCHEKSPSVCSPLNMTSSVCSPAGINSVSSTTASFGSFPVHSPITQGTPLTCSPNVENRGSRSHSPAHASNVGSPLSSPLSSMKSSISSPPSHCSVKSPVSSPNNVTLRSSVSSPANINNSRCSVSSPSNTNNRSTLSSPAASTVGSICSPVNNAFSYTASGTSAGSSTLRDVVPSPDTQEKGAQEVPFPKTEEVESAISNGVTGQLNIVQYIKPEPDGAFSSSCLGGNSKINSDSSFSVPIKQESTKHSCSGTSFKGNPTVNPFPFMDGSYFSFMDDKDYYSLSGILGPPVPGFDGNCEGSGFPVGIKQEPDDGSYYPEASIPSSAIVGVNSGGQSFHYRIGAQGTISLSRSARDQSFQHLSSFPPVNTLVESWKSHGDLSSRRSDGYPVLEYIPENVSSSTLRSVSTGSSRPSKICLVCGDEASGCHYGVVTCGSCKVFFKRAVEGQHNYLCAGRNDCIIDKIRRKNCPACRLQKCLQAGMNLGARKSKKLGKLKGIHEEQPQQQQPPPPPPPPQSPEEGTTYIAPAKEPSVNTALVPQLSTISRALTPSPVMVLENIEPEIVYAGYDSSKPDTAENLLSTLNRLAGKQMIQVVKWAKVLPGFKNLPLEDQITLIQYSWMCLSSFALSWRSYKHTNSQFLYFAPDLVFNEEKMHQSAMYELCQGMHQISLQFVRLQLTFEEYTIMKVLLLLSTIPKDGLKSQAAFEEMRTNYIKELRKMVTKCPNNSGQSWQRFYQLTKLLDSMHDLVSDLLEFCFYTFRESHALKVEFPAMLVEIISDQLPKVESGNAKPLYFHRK
As to the kind of experiment: Antagonist activity at mineralocorticoid receptor (hMR); Efficacy <20% and/or potency >[…] nM. Format: functional.

The target in assay [4] is T3, Mineralocorticoid receptor (Homo sapiens). Description: Antagonist efficacy at mineralocorticoid receptor (hMR); Efficacy <20% and/or potency >[…] nM. It is filed as functional.
Assay [5] deals with T2, Androgen receptor. Description: Antagonist activity against Androgen receptor; not active. Format: functional.
The target in assay [6] is T4, Androgen receptor (Homo sapiens) (UniProt P10275).
T4 sequence (whole entry): T2 sequence (P10275 whole entry)
Description: Antagonist efficacy at human androgen (hAR) receptor; not active. Format: functional.

The target of assay [7] is T1, Glucocorticoid receptor. As to the kind of experiment: Antagonist activity at glucocorticoid (hGR) receptor. It is filed as functional.
The target in assay [8] is T5, Glucocorticoid receptor (Homo sapiens) (UniProt P04150).
T5 sequence (whole entry): T1 sequence (P04150 whole entry)
Description: Antagonist efficacy at glucocorticoid (hGR) receptor. Format: functional.

In assay [9] the target is T2, Androgen receptor.
Assay [10] addresses T1, Glucocorticoid receptor.

`CC/C(C)=C1\Oc2ccc(F)cc2-c2ccc3c(c21)C(C)=CC(C)(C)N3`: the Efficacy result (at Estrogen receptor; in assay [3]; in assay [4]) was “inactive” in each case. In addition, the pIC50 at Glucocorticoid receptor [1] is 6.49; against Androgen receptor [2], 6.60.
For the compound `CC(C)=C/C=C1\Oc2ccc(F)cc2-c2ccc3c(c21)C(C)=CC(C)(C)N3`, the results for the negative logarithm of the IC50 (pIC50) at Androgen receptor [5] and on Glucocorticoid receptor [7] were less than 6.00 and 6.75, respectively. The same compound showed an Efficacy in assay [6] of less than 20%.
In the case of `CC(=O)C[C@]1(C(C)=O)CC[C@H]2C3C[C@H](C)C4=CC(=O)CC[C@]4(C)[C@H]3CC[C@@]21C` (stereo partly drawn), the Efficacy in assay [8] came to 157%. Moreover, the figures for the negative logarithm of the IC50 (pIC50) at Glucocorticoid receptor [7] and against Androgen receptor [9] were 8.00 and 8.21, respectively.
In the case of `CC1=CC(C)(C)Nc2ccc3c(c21)/C(=C/Br)Oc1ccc(F)cc1-3`, the negative logarithm of the IC50 (pIC50) is less than 6.00 against Glucocorticoid receptor [10] and 6.60 against Androgen receptor [9].
